The target of the experiment is POLRMT (Homo sapiens (Human), UniProt O00411). Description: homogeneous TR-FRET assay of POLRMT inhibition (mitochondrial transcription, 407 bp RNA product). The class given is biochemical. Conditions: 7.5 nM POLRMT, 15 nM TFB2M, 30 nM TFAM, 0.5 nM DNA template, 500 μM NTPs, 37° C., 60 minutes, * = aggregation of data sets, read-out: IC50 values for isoquinolinone compounds. How it is done:
The inhibitory activity of the compounds of the present invention against POLRMT were determined by assays based on Bergbrede, T., et al., “An adaptable high-throughput technology enabling the identification of specific transcription modulators,” SLAC Discov., 22, 378-386 (2017).
The ability of some compounds of the present invention to inhibit POLRMT were determined in a homogeneous TR-FRET Assay using high-throughput screening in a 384-well plate format. This method is used to monitor the activity of mitochondrial transcription through measurement of its product, a 407 bp long RNA transcript. Detection of the product is facilitated by hybridization of two DNA-oligonucleotide probes to specific and adjacent sequences within the RNA product sequence. Upon annealing of the probes, two fluorophores are coupled directly to an acceptor nucleotide probe (ATTO647, 5′), or introduced via a coupled streptavidin with a biotinylated donor nucleotide probe (Europium cryptate) that is brought into sufficient proximity to serve as a fluorescence-donor-acceptor pair. Thus, a FRET signal at 665 nm is generated upon excitation at 340 nm.
Proteins used as transcription factors (POLRMT: NP_005026.3, TFAM: NP_003192.1, TFB2M: NP_071761.1) are diluted from their stocks to working concentrations of 1 μM, 20 μM and 4 μM respectively, in a dilution buffer containing 20 mM Tris-HCl (pH 8.0), 200 mM NaCl, 10% (v/v) glycerol, 1 mM Dithiothreitol (DTT), 0.5 mM EDTA.
DNA template is a pUC18 plasmid with the mitochondrial light strand promotor sequence (1-477) cloned between HindIII and BamHI sites. The DNA template is restriction linearized proximal to the promotor 3′-end (pUC-LSP).
The reaction mixture (10 uL) containing 7.5 nM POLRMT, 15 nM of TFB2M, 30 nM of TFAM, 0.5 nM of DNA template and 500 μM nucleotide triphosphate mix (NTPs) in a reaction buffer (containing 10 mM Tris-HCl (pH 7.5), 10 mM MgCl2, 40 mM NaCl, 10 mM DTT, 0.005% (w/v) Tween-20, 160 units/ml Rnase inhibitor and 0.1 mg/mL BSA) are dispensed to compounds in microplates, using a Thermo Multidrop® dispenser, and incubated at 37° C. in a VWR INCU-Line incubator for 60 minutes after mixing. No nucleotide triphosphate mix is added to negative control samples. Microplates with compounds to be tested in the assay are prepared from 10 mM compound stocks in 100% DMSO, equal amounts of DMSO without any compound are added to positive control and negative control samples.
During the incubation, a mix of the detection reagents is prepared in a buffer such that the enzymatic reaction is terminated due to chelating of Mg-ions and increased ionic strength, containing 50 mM Tris-HCl (pH 7.5), 700 mM NaCl, 20 mM EDTA, and 0.01% (w/v) Tween-20. Europium-streptavidin is pre-incubated with a 200-fold molar excess of a random sequence oligonucleotide to block unspecific binding of oligo, for two hours at ambient temperature in the dark. Afterwards, the blocked Europium-streptavidin is kept on ice until use.
At the end of the enzymatic reaction time, 5 μL detection oligo mix in the detection buffer is added, and assay plates are mixed and kept at ambient temperature for one hour, protected from light. The concentration of the Acceptor nucleotide oligo (e.g., ATTO647N-5′-[…]-3′ (SEQ ID NO: 1)) and Donor nucleotide oligo (e.g., bio-5′-AACACATCTCT(-bio)GCCAAACCCCA-bio-3′ (SEQ ID NO: 2)) in each assay well is 1 nM, and 3 nM, respectively.
After incubation with oligo mix, 5 μL of pre-blocked Europium-streptavidin reagent is dispensed to each assay well, assay plates are again mixed and kept at ambient temperature for one hour, protected from light.
The generated signal is measured with BMG Pherastar microtiter plate reader with a TRF light unit, using excitation at 340 nm, an integration time of 200 μs, and a delay time of 100 μs, before detection at 620 nm and 665 nm. The ratio of donor- and acceptor-fluorescence is used as a measure of the generated transcript product (i.e. enzymatic activity).

Usually IC50 stands for the concentration that inhibits the measured activity by half.

Chain of POLRMT (O00411 42-1230): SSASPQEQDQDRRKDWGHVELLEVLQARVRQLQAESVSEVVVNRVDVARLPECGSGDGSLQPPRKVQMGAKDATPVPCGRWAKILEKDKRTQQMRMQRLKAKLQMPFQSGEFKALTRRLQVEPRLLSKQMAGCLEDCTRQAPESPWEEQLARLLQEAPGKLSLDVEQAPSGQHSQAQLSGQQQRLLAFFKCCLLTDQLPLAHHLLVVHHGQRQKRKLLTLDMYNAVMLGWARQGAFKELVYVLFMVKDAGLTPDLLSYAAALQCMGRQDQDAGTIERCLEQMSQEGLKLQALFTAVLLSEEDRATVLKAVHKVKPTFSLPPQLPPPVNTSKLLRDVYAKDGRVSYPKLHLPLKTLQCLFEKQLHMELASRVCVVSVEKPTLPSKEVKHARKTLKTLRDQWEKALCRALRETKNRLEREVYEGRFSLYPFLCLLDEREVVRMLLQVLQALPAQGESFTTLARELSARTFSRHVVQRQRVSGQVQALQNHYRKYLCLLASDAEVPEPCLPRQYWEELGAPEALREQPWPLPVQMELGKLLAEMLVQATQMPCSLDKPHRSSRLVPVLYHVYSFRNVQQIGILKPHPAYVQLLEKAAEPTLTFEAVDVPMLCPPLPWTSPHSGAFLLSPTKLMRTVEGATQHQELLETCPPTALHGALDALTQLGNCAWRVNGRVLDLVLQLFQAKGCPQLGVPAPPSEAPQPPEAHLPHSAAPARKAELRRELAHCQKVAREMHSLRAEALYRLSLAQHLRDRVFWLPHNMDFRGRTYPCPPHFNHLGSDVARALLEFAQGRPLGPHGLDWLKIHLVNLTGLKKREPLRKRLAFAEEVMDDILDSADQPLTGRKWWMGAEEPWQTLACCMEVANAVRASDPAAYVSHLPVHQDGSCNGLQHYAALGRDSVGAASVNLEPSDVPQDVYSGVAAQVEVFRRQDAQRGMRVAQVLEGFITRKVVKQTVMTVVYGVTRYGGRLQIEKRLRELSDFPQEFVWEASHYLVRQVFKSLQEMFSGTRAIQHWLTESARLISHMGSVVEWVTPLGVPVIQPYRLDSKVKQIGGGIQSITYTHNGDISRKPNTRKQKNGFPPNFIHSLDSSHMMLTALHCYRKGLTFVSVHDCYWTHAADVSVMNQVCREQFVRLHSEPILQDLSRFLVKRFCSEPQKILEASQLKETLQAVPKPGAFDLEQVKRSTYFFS

With `CC(=O)N1CCN(C[C@H](C)Oc2ccc3c(-c4ccccc4C)c[nH]c(=O)c3c2)CC1` [Example 55, (S)-7-((1-(4-acetylpiperazin-1-yl)propan-2-yl)oxy)-4-(o-tolyl)isoquinolin-1(2H)-one], the IC50 turned out to be 37000 nM.
Consider `Cc1cc(F)ccc1-c1c[nH]c(=O)c2cc(O[C@H](C)C(=O)N3CCN(C(N)=O)CC3)ccc12` [Example 56, (R)-4-(2-((4-(4-fluoro-2-methylphenyl)-1-oxo-1,2-dihydroisoquinolin-7-yl)oxy)propanoyl)piperazine-1-carboxamide], for which the concentration for half-maximal inhibition (IC50) was 30 nM.
For `Cc1c(F)cccc1-c1c[nH]c(=O)c2cc(O[C@H](C)C(=O)N3CCN(C(N)=O)CC3)ccc12` [Example 57, (R)-4-(2-((4-(3-fluoro-2-methylphenyl)-1-oxo-1,2-dihydroisoquinolin-7-yl)oxy)propanoyl)piperazine-1-carboxamide], the concentration for half-maximal inhibition (IC50) amounted to 20 nM.
On to `Cc1ccccc1-c1c[nH]c(=O)c2cc(O[C@H](C)C(=O)NCC(N)=O)ccc12` [Example 60, (R)-N-(2-amino-2-oxoethyl)-2-((1-oxo-4-(o-tolyl)-1,2-dihydroisoquinolin-7-yl)oxy)propanamide], for which the IC50 was 100 nM.
With `Cc1ccccc1-c1c[nH]c(=O)c2cc(O[C@H](C)C(=O)N(C)CC(N)=O)ccc12` [Example 61, (R)-N-(2-amino-2-oxoethyl)-N-methyl-2-((1-oxo-4-(o-tolyl)-1,2-dihydroisoquinolin-7-yl)oxy)propanamide], the IC50 stood at 100 nM.
Turning to `Cc1ccccc1-c1c[nH]c(=O)c2cc(O[C@H](C)C(=O)NC3(C(N)=O)CC3)ccc12` [Example 62, (R)-1-(2-((1-oxo-4-(o-tolyl)-1,2-dihydroisoquinolin-7-yl)oxy)propanamido)cyclopropane-1-carboxamide], the IC50 is 100 nM.
With `COCCc1ccccc1-c1c[nH]c(=O)c2cc(OCC#N)ccc12` [Example 63, 2-((4-(2-(2-methoxyethyl)phenyl)-1-oxo-1,2-dihydroisoquinolin-7-yl)oxy)acetonitrile], the IC50 is more than 100000 nM.
On to `Cc1ccccc1-c1c[nH]c(=O)c2cc(O[C@H](C)C(=O)N3CC[C@@H](N(C)C)C3)ccc12` [Example 64, 7-(((R)-1-((R)-3-(dimethylamino)pyrrolidin-1-yl)-1-oxopropan-2-yl)oxy)-4-(0-tolyl)isoquinolin-1(2H)-one], for which the IC50 worked out at 200 nM.
For the molecule `Cc1ccccc1-c1c[nH]c(=O)c2cc(O[C@H](C)C(=O)N3CC[C@H](N(C)C)C3)ccc12` [Example 65, 7-(((R)-1-((S)-3-(dimethylamino)pyrrolidin-1-yl)-1-oxopropan-2-yl)oxy)-4-(o-tolyl)isoquinolin-1(2H)-one], the IC50 was determined as 100 nM.
In the case of `CNC1CCN(C(=O)[C@@H](C)Oc2ccc3c(-c4ccccc4C)c[nH]c(=O)c3c2)CC1` [Example 68, (R)-7-((1-(4-(methylamino)piperidin-1-yl)-1-oxopropan-2-yl)oxy)-4-(o-tolyl)isoquinolin-1(2H)-one], the half-maximal inhibitory concentration (IC50) came to 200 nM.
The result for `Cc1ccccc1-c1c[nH]c(=O)c2cc(N(C)CC(=O)N[C@H](C)C(N)=O)ccc12` [Example 69, (R)-2-(2-(methyl(1-oxo-4-(o-tolyl)-1,2-dihydroisoquinolin-7-yl)amino)acetamido)propanamide] reads 3000 nM.
As for `Cc1c(F)cccc1-c1c[nH]c(=O)c2cc(N(C)CC(=O)NCCO)ccc12` [Example 70, 2-((4-(3-fluoro-2-methylphenyl)-1-oxo-1,2-dihydroisoquinolin-7-yl)(methyl)amino)-N-(2-hydroxyethyl)acetamide], the IC50 worked out at 1000 nM.
For the molecule `Cc1cccc(CO)c1-c1c[nH]c(=O)c2cc(OCC(F)(F)F)ccc12` [Example 71, 4-(2-(hydroxymethyl)-6-methylphenyl)-7-(2,2,2-trifluoroethoxy)isoquinolin-1(2H)-one], the IC50 came out at 80 nM.
Consider `Cc1cccc(CO)c1-c1c[nH]c(=O)c2cc(OCC(F)F)ccc12` [Example 72, 7-(2,2-difluoroethoxy)-4-(2-(hydroxymethyl)-6-methylphenyl)isoquinolin-1(2H)-one], for which the IC50 was found to be 100 nM.

For the origin of these results see patent publication US20250340516A1, “Isoquinolinones as Modulators of POLRMT” (Pretzel Therapeutics, Inc., priority 2024, published 2025).
